Patent US8741944B2, “Anti-infective agents against intracellular pathogens” (priority 2007, dated 2014)
Where two headings read alike, the source gives them in different places.

How the values were obtained:
[1] = test system: SR (Leukemia); assay: NCI DTP tumor cell line screen (SRB), SR
Procedure: (§1) For a typical screening experiment, cells are inoculated into 96 well microtiter plates in 100 μL at plating densities ranging from 5,000 to 40,000 cells/well depending on the doubling time of individual cell lines. After cell inoculation, the microtiter plates are incubated at 37° C., 5% CO2, 95% air and 100% relative humidity for 24 h prior to addition of experimental drugs.
(§2) After 24 h, two plates of each cell line are fixed in situ with TCA, to represent a measurement of the cell population for each cell line at the time of drug addition (Tz). Experimental drugs are solubilized in dimethyl sulfoxide at 400-fold the desired final maximum test concentration and stored frozen prior to use. At the time of drug addition, an aliquot of frozen concentrate is thawed and diluted to twice the desired final maximum test concentration with complete medium containing 50 μg/ml gentamicin. Additional four, 10-fold or ½ log serial dilutions are made to provide a total of five drug concentrations plus control. Aliquots of 100 μl of these different drug dilutions are added to the appropriate microtiter wells already containing 100 μl of medium, resulting in the required final drug concentrations.
(§3) Following drug addition, the plates are incubated for an additional 48 h at 37° C., 5% CO2, 95% air, and 100% relative humidity. For adherent cells, the assay is terminated by the addition of cold TCA. Cells are fixed in situ by the gentle addition of 50 μl of cold 50% (w/v) TCA (final concentration, 10% TCA) and incubated for 60 minutes at 4° C. The supernatant is discarded, and the plates are washed five times with tap water and air dried. Sulforhodamine B (SRB) solution (1001) at 0.4% (w/v) in 1% acetic acid is added to each well, and plates are incubated for 10 minutes at room temperature. After staining, unbound dye is removed by washing five times with 1% acetic acid and the plates are air dried. Bound stain is subsequently solubilized with 10 mM trizma base, and the absorbance is read on an automated plate reader at a wavelength of 515 nm. For suspension cells, the methodology is the same except that the assay is terminated by fixing settled cells at the bottom of the wells by gently adding 50 μl of 80% TCA (final concentration, 16% TCA). Using the seven absorbance measurements [time zero, (Tz), control growth, (C), and test growth in the presence of drug at the five concentration levels (Ti)], the percentage growth is calculated at each of the drug concentrations levels. Percentage growth inhibition is calculated as: [(Ti−Tz)/(C−Tz)]×100 for concentrations for which Ti>/=Tz [(Ti−Tz)/Tz]×100 for concentrations for which Ti<Tz
(§4) Three dose response parameters are calculated for each experimental agent. […] The drug concentration resulting in total growth inhibition (TGI) is calculated from Ti=Tz. […] Values are calculated for each of these three parameters if the level of activity is reached; however, if the effect is not reached or is exceeded, the value for that parameter is expressed as greater or less than the maximum or minimum concentration tested.

[2] = test system: M14 (Melanoma); assay: NCI DTP tumor cell line screen (SRB), M14
Procedure: as §1, §2, §3, §4

[3] = test system: A498 (Renal Cancer); assay: NCI DTP tumor cell line screen (SRB), A498
Procedure: as §1, §2, §3, §4

[4] = test system: PC-3 (Prostate Cancer); assay: NCI DTP tumor cell line screen (SRB), PC-3
Procedure: as §1, §2, §3, §4

[5] = test system: SN12C (Renal Cancer); assay: NCI DTP tumor cell line screen (SRB), SN12C
Procedure: as §1, §2, §3, §4

[6] = test system: HCT-15 (Colon Cancer); assay: NCI DTP tumor cell line screen (SRB), HCT-15; settings: HCT-15
Procedure: as §1, §2, §3, §4

[7] = test system: SW-620 (Colon Cancer); assay: NCI DTP tumor cell line screen (SRB), SW-620
Procedure: as §1, §2, §3, §4

[8] = test system: NCI-H23 (Non-Small Cell Lung Cancer)
Procedure: as §1, §2, §3, §4

[9] = test system: OVCAR-3 (Ovarian Cancer); assay: NCI DTP tumor cell line screen (SRB), OVCAR-3
Procedure: as §1, §2, §3, §4

[10] = test system: SK-OV-3 (Ovarian Cancer); assay: NCI DTP tumor cell line screen (SRB), SK-OV-3
Procedure: as §1, §2, §3, §4

[11] = test system: NCI-H522 (Non-Small Cell Lung Cancer)
Procedure: as §1, §2, §3, §4

[12] = test system: LOX IMVI (Melanoma); assay: NCI DTP tumor cell line screen (SRB), LOX IMVI
Procedure: as §1, §2, §3, §4

[13] = test system: SK-MEL-2 (Melanoma); assay: NCI DTP tumor cell line screen (SRB), SK-MEL-2
Procedure: as §1, §2, §3, §4

[14] = test system: MDA-MB-435 (Breast Cancer); assay: NCI DTP tumor cell line screen (SRB), MDA-MB-435
Procedure: as §1, §2, §3, §4

[15] = test system: NCI/ADR-RES (Breast Cancer)
Procedure: as §1, §2, §3, §4

[16] = test system: sixty human tumor cell lines; assay: NCI DTP sixty human tumor cell line screen (SRB), means over the panel

SMILES: NCC(=O)Nc1ccc(-n2nc(C(F)(F)F)cc2-c2ccc3c(ccc4ccccc43)c2)cc1 [Compound 70, 2-Amino-N-{4-[5-(2-phenanthrenyl)-3-(trifluoromethyl)-1H-pyrazol-1-yl]-phenyl}-acetamide]
- TGI [1]: 4.17E−06
- Mean Optical Densities ([1]; Log10 Concentration −4.0): 0.363
- Mean Optical Densities ([1]; Log10 Concentration −5.0): 0.265
- Percent Growth ([1]; Log10 Concentration −5.0): −27%
- Mean Optical Densities ([1]; Log10 Concentration −6.0): 0.605
- Percent Growth ([1]; Log10 Concentration −6.0): 45%
- Mean Optical Densities ([1]; Log10 Concentration −7.0): 0.796
- Percent Growth ([1]; Log10 Concentration −7.0): 80%
- Mean Optical Densities ([1]; Log10 Concentration −8.0): 0.816
- Percent Growth ([1]; Log10 Concentration −8.0): 84%
- TGI [2]: 5.37E−06
- Mean Optical Densities ([2]; Log10 Concentration −4.0): 0.256
- Mean Optical Densities ([2]; Log10 Concentration −5.0): 0.211
- Percent Growth ([2]; Log10 Concentration −5.0): −33%
- Mean Optical Densities ([2]; Log10 Concentration −6.0): 0.916
- Percent Growth ([2]; Log10 Concentration −6.0): 90%
- Mean Optical Densities ([2]; Log10 Concentration −7.0): 0.974
- Percent Growth ([2]; Log10 Concentration −7.0): 98%
- Mean Optical Densities ([2]; Log10 Concentration −8.0): 0.975
- Percent Growth ([2]; Log10 Concentration −8.0): 98%
- TGI [3]: 5.75E−06
- Mean Optical Densities ([3]; Log10 Concentration −4.0): 0.433
- Mean Optical Densities ([3]; Log10 Concentration −5.0): 0.660
- Percent Growth ([3]; Log10 Concentration −5.0): −30%
- Mean Optical Densities ([3]; Log10 Concentration −6.0): 2.201
- Percent Growth ([3]; Log10 Concentration −6.0): 95%
- Mean Optical Densities ([3]; Log10 Concentration −7.0): 2.598
- Percent Growth ([3]; Log10 Concentration −7.0): 126%
- Mean Optical Densities ([3]; Log10 Concentration −8.0): 2.230
- Percent Growth ([3]; Log10 Concentration −8.0): 98%
- TGI [4]: 2.38E−06
- Mean Optical Densities ([4]; Log10 Concentration −4.0): 0.108
- Mean Optical Densities ([4]; Log10 Concentration −5.0): 0.055
- Percent Growth ([4]; Log10 Concentration −5.0): −77%
- Mean Optical Densities ([4]; Log10 Concentration −6.0): 0.593
- Percent Growth ([4]; Log10 Concentration −6.0): 47%
- Mean Optical Densities ([4]; Log10 Concentration −7.0): 0.763
- Percent Growth ([4]; Log10 Concentration −7.0): 69%
- Mean Optical Densities ([4]; Log10 Concentration −8.0): 0.910
- Percent Growth ([4]; Log10 Concentration −8.0): 89%
- TGI [5]: 3.51E−06
- Mean Optical Densities ([5]; Log10 Concentration −4.0): 0.308
- Mean Optical Densities ([5]; Log10 Concentration −5.0): 0.203
- Percent Growth ([5]; Log10 Concentration −5.0): −65%
- Mean Optical Densities ([5]; Log10 Concentration −6.0): 1.093
- Percent Growth ([5]; Log10 Concentration −6.0): 78%
- Mean Optical Densities ([5]; Log10 Concentration −7.0): 1.194
- Percent Growth ([5]; Log10 Concentration −7.0): 94%
- Mean Optical Densities ([5]; Log10 Concentration −8.0): 1.209
- Percent Growth ([5]; Log10 Concentration −8.0): 96%
- TGI [6]: 3.19E−06
- Mean Optical Densities ([6]; Log10 Concentration −5.0): 0.149
- Percent Growth ([6]; Log10 Concentration −5.0): −47%
- Mean Optical Densities ([6]; Log10 Concentration −6.0): 0.561
- Percent Growth ([6]; Log10 Concentration −6.0): 47%
- Mean Optical Densities ([6]; Log10 Concentration −7.0): 0.599
- Percent Growth ([6]; Log10 Concentration −7.0): 54%
- Mean Optical Densities ([6]; Log10 Concentration −8.0): 0.760
- Percent Growth ([6]; Log10 Concentration −8.0): 81%
- TGI [7]: 4.23E−06
- Mean Optical Densities ([7]; Log10 Concentration −4.0): 0.136
- Mean Optical Densities ([7]; Log10 Concentration −5.0): 0.127
- Percent Growth ([7]; Log10 Concentration −5.0): −32%
- Mean Optical Densities ([7]; Log10 Concentration −6.0): 0.736
- Percent Growth ([7]; Log10 Concentration −6.0): 54%
- Mean Optical Densities ([7]; Log10 Concentration −7.0): 1.198
- Percent Growth ([7]; Log10 Concentration −7.0): 100%
- Mean Optical Densities ([7]; Log10 Concentration −8.0): 1.197
- Percent Growth ([7]; Log10 Concentration −8.0): 100%
- TGI [8]: 2.87E−06
- Mean Optical Densities ([8]; Log10 Concentration −4.0): 0.156
- Mean Optical Densities ([8]; Log10 Concentration −5.0): 0.097
- Percent Growth ([8]; Log10 Concentration −5.0): −79%
- Mean Optical Densities ([8]; Log10 Concentration −6.0): 1.255
- Percent Growth ([8]; Log10 Concentration −6.0): 67%
- Mean Optical Densities ([8]; Log10 Concentration −7.0): 1.673
- Percent Growth ([8]; Log10 Concentration −7.0): 102%
- Mean Optical Densities ([8]; Log10 Concentration −8.0): 1.672
- Percent Growth ([8]; Log10 Concentration −8.0): 101%
- TGI [9]: 3.32E−06
- Mean Optical Densities ([9]; Log10 Concentration −4.0): 0.301
- Mean Optical Densities ([9]; Log10 Concentration −5.0): 0.140
- Percent Growth ([9]; Log10 Concentration −5.0): −70%
- Mean Optical Densities ([9]; Log10 Concentration −6.0): 0.816
- Percent Growth ([9]; Log10 Concentration −6.0): 76%
- Mean Optical Densities ([9]; Log10 Concentration −7.0): 0.849
- Percent Growth ([9]; Log10 Concentration −7.0): 83%
- Mean Optical Densities ([9]; Log10 Concentration −8.0): 0.879
- Percent Growth ([9]; Log10 Concentration −8.0): 89%
- TGI [10]: 2.96E−06
- Mean Optical Densities ([10]; Log10 Concentration −4.0): 0.302
- Mean Optical Densities ([10]; Log10 Concentration −5.0): 0.083
- Percent Growth ([10]; Log10 Concentration −5.0): −79%
- Mean Optical Densities ([10]; Log10 Concentration −6.0): 1.262
- Percent Growth ([10]; Log10 Concentration −6.0): 71%
- Mean Optical Densities ([10]; Log10 Concentration −7.0): 1.597
- Percent Growth ([10]; Log10 Concentration −7.0): 98%
- Mean Optical Densities ([10]; Log10 Concentration −8.0): 1.514
- Percent Growth ([10]; Log10 Concentration −8.0): 91%
- TGI [11]: 3.94E−06
- Mean Optical Densities ([11]; Log10 Concentration −4.0): 0.486
- Mean Optical Densities ([11]; Log10 Concentration −5.0): 0.260
- Percent Growth ([11]; Log10 Concentration −5.0): −66%
- Mean Optical Densities ([11]; Log10 Concentration −6.0): 1.528
- Percent Growth ([11]; Log10 Concentration −6.0): 97%
- Mean Optical Densities ([11]; Log10 Concentration −7.0): 1.718
- Percent Growth ([11]; Log10 Concentration −7.0): 122%
- Mean Optical Densities ([11]; Log10 Concentration −8.0): 1.626
- Percent Growth ([11]; Log10 Concentration −8.0): 110%
- TGI [12]: 3.07E−06
- Mean Optical Densities ([12]; Log10 Concentration −4.0): 0.352
- Mean Optical Densities ([12]; Log10 Concentration −5.0): 0.176
- Percent Growth ([12]; Log10 Concentration −5.0): −50%
- Mean Optical Densities ([12]; Log10 Concentration −6.0): 0.742
- Percent Growth ([12]; Log10 Concentration −6.0): 48%
- Mean Optical Densities ([12]; Log10 Concentration −7.0): 0.974
- Percent Growth ([12]; Log10 Concentration −7.0): 76%
- Mean Optical Densities ([12]; Log10 Concentration −8.0): 1.204
- Percent Growth ([12]; Log10 Concentration −8.0): 105%
- TGI [13]: 5.40E−06
- Mean Optical Densities ([13]; Log10 Concentration −4.0): 0.330
- Mean Optical Densities ([13]; Log10 Concentration −5.0): 0.289
- Mean Optical Densities ([13]; Log10 Concentration −6.0): 0.885
- Percent Growth ([13]; Log10 Concentration −6.0): 100%
- Mean Optical Densities ([13]; Log10 Concentration −7.0): 0.956
- Percent Growth ([13]; Log10 Concentration −7.0): 117%
- Mean Optical Densities ([13]; Log10 Concentration −8.0): 0.943
- Percent Growth ([13]; Log10 Concentration −8.0): 114%
- TGI [14]: 3.14E−06
- Mean Optical Densities ([14]; Log10 Concentration −4.0): 0.347
- Mean Optical Densities ([14]; Log10 Concentration −5.0): 0.127
- Percent Growth ([14]; Log10 Concentration −5.0): −69%
- Mean Optical Densities ([14]; Log10 Concentration −6.0): 1.126
- Percent Growth ([14]; Log10 Concentration −6.0): 68%
- Mean Optical Densities ([14]; Log10 Concentration −7.0): 1.447
- Percent Growth ([14]; Log10 Concentration −7.0): 98%
- Mean Optical Densities ([14]; Log10 Concentration −8.0): 1.502
- Percent Growth ([14]; Log10 Concentration −8.0): 103%
- TGI [15]: 2.85E−06
- Mean Optical Densities ([15]; Log10 Concentration −4.0): 0.212
- Mean Optical Densities ([15]; Log10 Concentration −5.0): 0.229
- Percent Growth ([15]; Log10 Concentration −5.0): −59%
- Mean Optical Densities ([15]; Log10 Concentration −6.0): 1.217
- Percent Growth ([15]; Log10 Concentration −6.0): 49%
- Mean Optical Densities ([15]; Log10 Concentration −7.0): 1.878
- Percent Growth ([15]; Log10 Concentration −7.0): 98%
- Mean Optical Densities ([15]; Log10 Concentration −8.0): 1.883
- Percent Growth ([15]; Log10 Concentration −8.0): 98%
- concentration range completely suppressing cell growth in a diverse range of tumor cell lines [16]: 3 to 5 µM
- GI50 ([16]; read-out: mean GI50 among the sixty cell lines, two-day treatment): 1200 nM
- mean TGI among the sixty cell lines ([16]; two-day treatment): 3200 nM
